According to PMC12488480, “A missing enzyme-rescue metabolite as cause of a rare skeletal dysplasia” (Nature, 2025):

What was measured:
Assay type in all cases: biochemical
[1] = molecular target: T1, UXS1 (UDP-xylose synthase) (Homo sapiens, UniProt Q8NBZ7); assay: NaBH4 reduction of enzyme-bound NAD+ in recombinant UXS1, LC-MS of NADH and activity
T1 sequence (Q8NBZ7 1-420): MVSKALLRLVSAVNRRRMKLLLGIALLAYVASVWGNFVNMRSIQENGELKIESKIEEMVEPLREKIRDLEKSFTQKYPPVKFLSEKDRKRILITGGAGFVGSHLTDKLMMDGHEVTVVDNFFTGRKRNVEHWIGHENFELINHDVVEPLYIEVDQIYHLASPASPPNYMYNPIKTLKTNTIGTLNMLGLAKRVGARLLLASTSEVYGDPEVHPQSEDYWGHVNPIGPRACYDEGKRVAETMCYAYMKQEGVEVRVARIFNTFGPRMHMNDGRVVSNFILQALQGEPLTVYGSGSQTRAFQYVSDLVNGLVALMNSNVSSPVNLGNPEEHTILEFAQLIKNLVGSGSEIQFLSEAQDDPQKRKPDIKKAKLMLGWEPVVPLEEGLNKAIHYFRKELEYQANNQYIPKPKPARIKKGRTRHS

[2] = molecular target: T2, TGDS (dTDP-D-glucose 4,6-dehydratase) (Homo sapiens, UniProt O95455); assay: Recombinant enzyme assay, LC-MS
T2 construct: N-terminal hexahistidine-tag fused to amino acid 15 of TGDS
T2 sequence (O95455 15-350): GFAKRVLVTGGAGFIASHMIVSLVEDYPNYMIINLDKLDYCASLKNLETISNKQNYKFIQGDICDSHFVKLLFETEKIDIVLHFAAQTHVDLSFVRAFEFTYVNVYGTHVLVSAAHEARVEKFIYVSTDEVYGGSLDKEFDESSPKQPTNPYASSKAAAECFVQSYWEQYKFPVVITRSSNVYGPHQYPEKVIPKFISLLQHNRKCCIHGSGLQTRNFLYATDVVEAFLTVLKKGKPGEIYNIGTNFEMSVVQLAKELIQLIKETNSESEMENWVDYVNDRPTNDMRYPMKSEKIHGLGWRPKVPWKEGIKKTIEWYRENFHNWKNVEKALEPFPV

[3] = molecular target: T1, UXS1 (UDP-xylose synthase); assay: Recombinant enzyme assay, LC-MS

NC(=O)C1=CN([C@@H]2O[C@H](COP(=O)(O)OP(=O)(O)OC[C@H]3O[C@@H](n4cnc5c(N)ncnc54)[C@H](O)[C@@H]3O)[C@@H](O)[C@H]2O)C=CC1 [NADH]
NaBH4 reduction of enzyme-bound NAD+ in recombinant UXS1, LC-MS of NADH and acti [1]: This led to tenfold lower levels of NAD^+ and a concomitant increase in NADH

C[C@H]1O[C@H](OP(=O)(O)OP(=O)(O)OC[C@H]2O[C@@H](n3ccc(=O)[nH]c3=O)[C@H](O)[C@@H]2O)[C@H](O)[C@@H](O)C1=O [UDP-4k6dG, UDP-4-keto-6-deoxyglucose]
Recombinant enzyme assay, LC-MS [2]: TGDS produced a metabolite with identical m/z, elution time and hydration status as UDP-4-keto-6-deoxyglucose produced by fungal UG46DH

O=c1ccn([C@@H]2O[C@H](COP(=O)(O)OP(=O)(O)O[C@H]3OC[C@@H](O)[C@H](O)[C@H]3O)[C@@H](O)[C@H]2O)c(=O)[nH]1 [UDP-Xyl, UDP-xylose]
Recombinant enzyme assay, LC-MS [3]: We observed an almost complete recovery of UDP-xylose production, an increase of NAD^+
